Measurements published in ChEMBL document CHEMBL1201862, “PubChem BioAssay data set” (2004).
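Protocol summary: plate cells (96-well), add compound at 5 concentrations, incubate 48 h, interpolate endpoints linearly. The concentration for 50% growth inhibition is given as GI50.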 Active and inactive are the calls of the source. Cut-off read from the data, not from the text of the source: active = GI50 up to about 1.1 µM and inactive = higher.

Columns and labels:
Test in all cases: NCI anticancer screen, dose series, 48 h
COLO 205 = system: COLO 205
DU-145 = system: DU-145
HCT-116 = system: HCT-116
KM12 = system: KM12
MDA-MB-435 = system: MDA-MB-435
MDA-N = system: MDA-N
NCI-H460 = system: NCI-H460
NCI-H522 = system: NCI-H522
OVCAR-3 = system: OVCAR-3
RXF 393 = system: RXF 393
SK-MEL-2 = system: SK-MEL-2
SK-OV-3 = system: SK-OV-3
SN12C = system: SN12C
UACC-62 = system: UACC-62
UO-31 = system: UO-31
CCRF-CEM = system: CCRF-CEM
Hs-578T = system: Hs-578T
NCI-H226 = system: NCI-H226
EKVX = system: EKVX
BT-549 = system: BT-549

O=C1OCCC12CN(Cc1ccccc1)N=N2 (configuration not stated)
GI50 (COLO 205): > 100 µM (inactive)
GI50 (DU-145): 87.7 µM (inactive)
GI50 (HCT-116): > 100 µM (inactive)
GI50 (KM12): > 100 µM (inactive)
GI50 (MDA-MB-435): > 100 µM (inactive)
GI50 (MDA-N): > 100 µM (inactive)
GI50 (NCI-H460): > 100 µM (inactive)
GI50 (NCI-H522): 49.9 µM (inactive)
GI50 (OVCAR-3): > 100 µM (inactive)
GI50 (RXF 393): > 100 µM (inactive)
GI50 (SK-MEL-2): > 100 µM (inactive)
GI50 (SK-OV-3): > 100 µM (inactive)
GI50 (SN12C): > 100 µM (inactive)
GI50 (UACC-62): > 100 µM (inactive)
GI50 (UO-31): > 100 µM (inactive)

C[C@H]1C[C@H]2[C@@H]3C(C)(C)O[C@]4(O)C(=O)[C@]5(O)[C@@H](C)CC[C@H]1[C@]25C(=O)[C@]34C
GI50 (CCRF-CEM): 36.6 µM (inactive)
GI50 (COLO 205): 16.7 µM (inactive)
GI50 (DU-145): 48.2 µM (inactive)
GI50 (HCT-116): 30.7 µM (inactive)
GI50 (Hs-578T): 37.5 µM (inactive)
GI50 (KM12): 35.6 µM (inactive)
GI50 (MDA-MB-435): 32.8 µM (inactive)
GI50 (MDA-N): 37.7 µM (inactive)
GI50 (NCI-H226): 31.3 µM (inactive)
GI50 (NCI-H460): 30.2 µM (inactive)
GI50 (NCI-H522): 18 µM (inactive)
GI50 (OVCAR-3): 27.4 µM (inactive)
GI50 (SK-MEL-2): 31.3 µM (inactive)
GI50 (SK-OV-3): 82.4 µM (inactive)
GI50 (SN12C): 80.2 µM (inactive)
GI50 (UACC-62): 43.4 µM (inactive)
GI50 (UO-31): 51.6 µM (inactive)

CNC(=O)NCCN1CC2CCC(CC2)C1
GI50 (CCRF-CEM): > 10 µM (inactive)
GI50 (COLO 205): > 10 µM (inactive)
GI50 (DU-145): > 10 µM (inactive)
GI50 (EKVX): > 10 µM (inactive)
GI50 (HCT-116): > 10 µM (inactive)
GI50 (Hs-578T): > 10 µM (inactive)
GI50 (KM12): > 10 µM (inactive)
GI50 (MDA-MB-435): > 10 µM (inactive)
GI50 (MDA-N): > 10 µM (inactive)
GI50 (NCI-H226): > 10 µM (inactive)
GI50 (NCI-H460): > 10 µM (inactive)
GI50 (NCI-H522): > 10 µM (inactive)
GI50 (OVCAR-3): > 10 µM (inactive)
GI50 (RXF 393): > 10 µM (inactive)
GI50 (SK-MEL-2): > 10 µM (inactive)
GI50 (SK-OV-3): > 10 µM (inactive)
GI50 (SN12C): > 10 µM (inactive)
GI50 (UACC-62): > 10 µM (inactive)
GI50 (UO-31): > 10 µM (inactive)

COc1ccc2c(c1)c1c3c(ccc4ncn2c43)N(CCN(C)C)CCN=1
GI50 (CCRF-CEM): 0.127 µM (active)
GI50 (COLO 205): 0.356 µM (active)
GI50 (DU-145): 0.942 µM (active)
GI50 (EKVX): 0.586 µM (active)
GI50 (HCT-116): 0.298 µM (active)
GI50 (Hs-578T): 1.06 µM (active)
GI50 (KM12): 0.374 µM (active)
GI50 (MDA-MB-435): 0.378 µM (active)
GI50 (MDA-N): 0.438 µM (active)
GI50 (NCI-H226): 1.14 µM (inactive)
GI50 (NCI-H460): 0.176 µM (active)
GI50 (NCI-H522): 0.19 µM (active)
GI50 (OVCAR-3): 0.538 µM (active)
GI50 (RXF 393): 1.12 µM (active)
GI50 (SK-MEL-2): 1.03 µM (active)
GI50 (SK-OV-3): 0.908 µM (active)
GI50 (SN12C): 0.316 µM (active)
GI50 (UACC-62): 1.23 µM (inactive)
GI50 (UO-31): 0.404 µM (active)

CN(C)CCCNC(=O)c1cc(NC(=O)c2cc(NC(=O)[C@H]3C[C@@H]3C(=O)Nc3cc(C(=O)Nc4cc(C(=O)NCCCN(C)C)n(C)c4)n(C)c3)cn2C)cn1C
GI50 (BT-549): > 100 µM (inactive)
GI50 (CCRF-CEM): > 100 µM (inactive)
GI50 (COLO 205): > 100 µM (inactive)
GI50 (DU-145): > 100 µM (inactive)
GI50 (EKVX): > 100 µM (inactive)
GI50 (HCT-116): > 100 µM (inactive)
GI50 (KM12): > 100 µM (inactive)
GI50 (MDA-MB-435): > 100 µM (inactive)
GI50 (NCI-H226): > 100 µM (inactive)
GI50 (NCI-H460): > 100 µM (inactive)
GI50 (NCI-H522): 65 µM (inactive)
GI50 (SK-MEL-2): > 100 µM (inactive)
GI50 (SN12C): > 100 µM (inactive)

CN(C)C(=O)Nc1cc2c3c(c1)CCCN3CCC2
GI50 (CCRF-CEM): > 10 µM (inactive)
GI50 (COLO 205): > 10 µM (inactive)
GI50 (DU-145): > 10 µM (inactive)
GI50 (EKVX): > 10 µM (inactive)
GI50 (HCT-116): > 10 µM (inactive)
GI50 (Hs-578T): > 10 µM (inactive)
GI50 (KM12): > 10 µM (inactive)
GI50 (MDA-MB-435): > 10 µM (inactive)
GI50 (MDA-N): > 10 µM (inactive)
GI50 (NCI-H226): > 10 µM (inactive)
GI50 (NCI-H460): > 10 µM (inactive)
GI50 (NCI-H522): > 10 µM (inactive)
GI50 (OVCAR-3): > 10 µM (inactive)
GI50 (RXF 393): > 10 µM (inactive)
GI50 (SK-MEL-2): > 10 µM (inactive)
GI50 (SK-OV-3): > 10 µM (inactive)
GI50 (SN12C): > 10 µM (inactive)
GI50 (UACC-62): > 10 µM (inactive)
GI50 (UO-31): > 10 µM (inactive)
